Test results taken from publication PMC5563514, “Viral polymerase inhibitors T-705 and T-1105 are potential inhibitors of Zika virus replication” (Archives of Virology, 2017).
Read-outs that look alike come from different tables or passages of the source.

What was measured:
[1] = Cytotoxicity against Vero cells (CPE monitoring, neutral red uptake); format: cell-based; details: African green monkey; for CC50 at 72 h: Vero cells, neutral red uptake, three independent experiments
Method: The cytotoxicity of the compounds against Vero cells was determined by monitoring the CPE. Vero cells (2.5 × 10^4/well) were plated in the wells of a 96-well plate. After 24 h, the cell monolayer was incubated with different concentrations of the test compounds for 72 h at 37 °C under a 5% CO2 atmosphere in a CO2 incubator and then monitored for CPE. The appropriate negative and positive controls were used. A neutral red uptake assay was used to assess cell viability. The half-maximal (50%) cytotoxic concentration (CC50) of each compound was determined from the dose-response curve.

ZIKV strain SZ01 = experiment: CPE inhibition assay, anti-ZIKV activity in Vero cells; format: cell-based, Zika virus; details: for cell death rate compared with mock-treated ZIKV-infected cells: P < 0.05, two-tailed Student's t-test; for EC50: Zika virus, ZIKV strain SZ01, 68.6 TCID50, Vero cells, neutral red uptake, three independent experiments
YFV [2] = details: cited from earlier work
YFV [3] = details: at low concentrations; cited from earlier work

Row | Compound | CC50 at 72 h [1] | further results
1 | CCCCCCCCCCCCCCCCOCCCOP(=O)(O)CO[C@H](CO)Cn1ccc(N)nc1=O [CMX001, brincidofovir] |  | CC50 [1]: 11.3 ± 0.2 µM; anti-ZIKV activity (ZIKV strain SZ01): not active; effect on ZIKV-induced CPE or cell death (ZIKV strain SZ01): little or no effect
2 | CCn1ccnc(C(N)=O)c1=O [Compound 1, 4-ethyl-3-oxo-3,4-dihydropyrazine-2-carboxamide] | > 1000 µM | 
3 | CC(=O)OCCOCn1ccnc(C(N)=O)c1=O [Compound 2, 2-((3-carbamoyl-2-oxopyrazin-1(2H)-yl)methoxy) ethyl acetate] | > 2000 µM | 
4 | NC(=O)c1nccn(COCCO)c1=O [Compound 3, 4-((2-hydroxyethoxy)methyl)-3-oxo-3,4-dihydropyrazine-2-carboxamide] | > 1000 µM | 
5 | NC(=O)c1nccn(CC(O)COC(c2ccccc2)(c2ccccc2)c2ccccc2)c1=O (stereo not shown) [Compound 4, 4-(2-hydroxy-3-(trityloxy)propyl)-3-oxo-3,4-dihydropyrazine-2-carboxamide] | > 500 µM | 
6 | NC(=O)c1nccn(CC(O)CO)c1=O (stereo not shown) [Compound 5, 4-(2,3-dihydroxypropyl)-3-oxo-3,4-dihydropyrazine-2-carboxamide] | > 2000 µM | 
7 | NC(=O)c1nccn(C2OC(CO)C(O)C2O)c1=O (stereo not shown) [Compound 6, 4-(3,4-dihydroxy-5-(hydroxymethyl)tetrahydrofuran-2-yl)-3-oxo-3,4-dihydropyrazine-2-carboxamide] | > 1000 µM | efficacy in a hamster model of YFV infection (YFV [2]): effective; activity in cell culture (YFV [3]): only slight activity
8 | CC(=O)OCCOCn1cc(F)nc(C(N)=O)c1=O [Compound 7, 2-((3-carbamoyl-5-fluoro-2-oxopyrazin-1(2H)-yl)methoxy) ethyl acetate] | > 1000 µM | 
9 | NC(=O)c1nc(F)cn(CC(O)COC(c2ccccc2)(c2ccccc2)c2ccccc2)c1=O (stereo not shown) [Compound 8, 6-fluoro-4-(2-hydroxy-3-(trityloxy)propyl)-3-oxo-3,4-dihydropyrazine-2-carboxamide] | > 500 µM | 
10 | NC(=O)c1nc(F)cn(C2OC(CO)C(O)C2O)c1=O (stereo not shown) [Compound 9, 4-(3,4-dihydroxy-5-(hydroxymethyl)tetrahydrofuran-2-yl)-6-fluoro-3-oxo-3,4-dihydropyrazine-2-carboxamide] | > 1000 µM | 
11 | NC(=O)c1nc([N+](=O)[O-])cnc1O [Compound 10, 6-nitropyrazine-3-hydroxy-2-carboxamide] | > 4000 µM | 
12 | NC(=O)c1nc(Br)cnc1O [Compound 11, 6-bromo-3-hydroxypyrazine-2-carboxamide] | > 2000 µM | 
13 | COc1cnc(O)c(C(N)=O)n1 [Compound 12, 3-hydroxy-6-methoxypyrazine-2-carboxamide] | > 1000 µM | 
14 | CCOc1cnc(O)c(C(N)=O)n1 [Compound 13, 6-ethoxy-3-hydroxypyrazine-2-carboxamide] | > 500 µM | 
15 | CCCOc1cnc(O)c(C(N)=O)n1 [Compound 14, 3-hydroxy-6-propoxypyrazine-2-carboxamide] | > 500 µM | 
16 | CC(C)Oc1cnc(O)c(C(N)=O)n1 [Compound 15, 6-isopropoxypyrazine-3-hydroxy-2-carboxamide] | 345 ± 48.4 µM | 
17 | CCCCOc1cnc(O)c(C(N)=O)n1 [Compound 16, 6-butoxy-3-hydroxypyrazine-2-carboxamide] | 310 ± 15.2 µM | 
18 | CCCCCOc1cnc(O)c(C(N)=O)n1 [Compound 17, 3-hydroxy-6-(pentyloxy)pyrazine-2-carboxamide] | 260 ± 51.1 µM | 
19 | CCCCCCCCOc1cnc(O)c(C(N)=O)n1 [Compound 18, 3-hydroxy-6-(octyloxy)pyrazine-2-carboxamide] | 245 ± 17.8 µM | 
20 | NC(=O)c1nc(OCCO)cnc1O [Compound 19, 3-hydroxy-6-(2-hydroxyethoxy) pyrazine-2-carboxamide] | > 1000 µM | 
21 | COCCOc1cnc(O)c(C(N)=O)n1 [Compound 20, 3-hydroxy-6-(2-methoxyethoxy) pyrazine-2-carboxamide] | > 1000 µM | 
22 | NC(=O)c1nc(F)c[nH]c1=O [Compound T-705, favipiravir] | > 3000 µM | cell death rate compared with mock-treated ZIKV-infected cells (ZIKV strain SZ01): significantly reduced; EC50 (ZIKV strain SZ01): 111 ± 13.1 µM
23 | NC(=O)c1nccnc1O [Compound T-1105, 3-hydroxypyrazine-2-carboxamide] | > 4000 µM | cell death rate compared with mock-treated ZIKV-infected cells (ZIKV strain SZ01): significantly reduced; EC50 (ZIKV strain SZ01): 97.5 ± 6.8 µM
24 | NC(=O)c1ncn([C@@H]2O[C@H](CO)[C@@H](O)[C@H]2O)n1 [Ribavirin] | > 2000 µM | effect on ZIKV-induced CPE or cell death (ZIKV strain SZ01; Vero cells, ZIKV strain SZ01): little or no effect; anti-ZIKV activity (ZIKV strain SZ01; at concentrations below 400 μM): not active
